Experiment: xn = mol fraction of the nth substance listed

C=CCN(CC=C)C(=O)C(Cl)Cl + CC(C)=O
viscosity [mPa·s], 101 kPa
Conditions	x1 = 0.006314	x1 = 0.01189	x1 = 0.01711	x1 = 0.02832	x1 = 0.03651	x1 = 0.04464	x1 = 0.05006	x1 = 0.05495
293.15 K	0.3429	0.3501	0.3617	0.3719	0.3878	0.3997	0.4079	0.4157
298.15 K	0.3335	0.3358	0.3476	0.3589	0.3712	0.3822	0.3905	0.3989
303.15 K	0.3189	0.3227	0.3309	0.3424	0.3542	0.3646	0.3722	0.3793
308.15 K	0.3041	0.3086	0.3185	0.3268	0.3372	0.3478	0.3553	0.3628
313.15 K	0.2944	0.296	0.3075	0.3129	0.3247	0.3335	0.3423	0.3443

CC(C)C[C@H](NC(=O)CN)C(=O)O + O
viscosity [mPa·s], 100 kPa
Conditions	x1 = 0.000362	x1 = 0.000727	x1 = 0.00109	x1 = 0.00145	x1 = 0.00179	x1 = 0.002245	x1 = 0.002699
293.15 K	1.015	1.029	1.042	1.054	1.067	1.083	1.1
298.15 K	0.9019	0.9133	0.9246	0.9358	0.9464	0.9607	0.9749
303.15 K	0.8072	0.817	0.8268	0.8363	0.8455	0.8577	0.8698
308.15 K	0.7277	0.7362	0.7447	0.753	0.761	0.7717	0.7823
313.15 K	0.6605	0.668	0.6755	0.6828	0.6898	0.6992	0.7085

Cc1cccc(C)n1 + CO
101 kPa
Conditions	viscosity [mPa·s]
298.01 K, x1 = 0.1115	0.705
298.12 K, x1 = 0.2763	0.857
298.18 K, x1 = 0.4001	0.912
298.18 K, x1 = 0.5482	0.909
298.19 K, x1 = 0.8449	0.846
298.24 K, x1 = 0.2399	0.823
298.29 K, x1 = 0.7013	0.891
303.08 K, x1 = 0.1115	0.655
303.15 K, x1 = 0.8449	0.789
303.17 K, x1 = 0.2763	0.793
303.21 K, x1 = 0.2399	0.763
303.21 K, x1 = 0.4001	0.85
303.24 K, x1 = 0.7013	0.828
303.25 K, x1 = 0.5482	0.84
308.08 K, x1 = 0.1115	0.613
308.18 K, x1 = 0.8449	0.737
308.19 K, x1 = 0.2763	0.739
308.24 K, x1 = 0.5482	0.782
308.25 K, x1 = 0.2399	0.71
308.26 K, x1 = 0.7013	0.774
312.95 K, x1 = 0.2399	0.662
313.15 K, x1 = 0.1115	0.572
313.22 K, x1 = 0.8449	0.691
313.25 K, x1 = 0.2763	0.688
313.27 K, x1 = 0.4001	0.729
313.33 K, x1 = 0.7013	0.725
318.22 K, x1 = 0.1115	0.535
318.28 K, x1 = 0.8449	0.65
318.32 K, x1 = 0.2399	0.617
318.33 K, x1 = 0.2763	0.643
318.33 K, x1 = 0.4001	0.682
318.35 K, x1 = 0.5482	0.688
318.38 K, x1 = 0.7013	0.68

CCN(CCO)CCO + O
viscosity [mPa·s], 101 kPa
Conditions	303.15 K	308.15 K	313.15 K	318.15 K	323.15 K
x1 = 0.0478	2.433	2.084	1.809	1.585	1.4
x1 = 0.1002	5.975	4.885	4.051	3.403	2.897
x1 = 0.1411	10.13	8.044	6.499	5.322	4.422
x1 = 0.1933	16.59	12.84	10.12	8.088	6.604
x1 = 0.2959	31.21	23.36	17.84	13.84	10.95
x1 = 0.3944	43.07	31.83	24.05	18.38	14.39
x1 = 0.495	51.1	37.78	28.28	21.56	16.84
x1 = 0.5912	54.81	40.53	30.44	23.28	18.22
x1 = 0.7064	55.22	40.91	31.03	23.93	18.76
x1 = 0.8113	53.42	39.97	30.47	23.66	18.65
x1 = 0.8934	51.39	38.76	29.74	23.19	18.44

From the CheMixHub viscosity set
